One test relates to ALS patients. Put plainly: Administration of AKG-containing compositions to human ALS patients, observation of symptoms.
Test [1] has as its system patients suffering from neurodegenerative diseases. Put plainly: Oral AKG in patients suffering from neurodegenerative diseases. The class given is in vivo, human. From the text:
Initial results in mutant SOD1 mice show similar benefits compared to controls, when administered one example of the composition. […] In some instances, progression of the diseases were delayed or even reversed in human patients.
In Example A of Table A a sustained release formulation of […] is preferred.
For example, an […] ([…] or […]) is included in a composition to be used by patients with a neurodegenerative disease at a baseline dosage.
Results for people with various neurodegenerative diseases have shown that a core composition taken three times daily can provide a combination of supplements that are needed by the patients.

SMILES strings stand for the structures. “Also recorded” adds a separate entry of the source.

Procedure for ALS patients: In one example, 250 mg of GABA was administered three times per day per os, 30 mg of NADH was administered twice per day sublingually, and 3 grams of AAKG were administered, initially, four times per day per os, with the dosage gradually increasing up to 18 grams, if tolerated by the patient.

For the compound `O=C(O)CCC(=O)C(=O)O` [AKG, alpha-ketoglutaric acid], the “improvement with hourly AKG” value in the test with ALS patients (human patient, AKG supplement hourly during waking hours compared to four times per day) was “marked improvement”. Also, the “symptoms of ALS after withdrawal of AKG” value in the test on ALS patients (withdrawal for a short period (a few days)) is recorded as “return of symptoms of ALS”. Besides, in test [1] (AKG dosage of only six to eight grams), the “improvement at sub-optimal dosage” value was “some improvement”. In addition, the “symptoms when AKG was withheld” value in test [1] (AKG withheld from a patient, then recommenced) is “symptoms returned”. Besides, the “symptoms of neurodegenerative disease” value in test [1] (human patients (ALS, Alzheimers, Muscular Distrophy) taking AKG) was “fewer symptoms of the diseases; also recorded: marked, obvious improvements”.
Consider `NCCCC(=O)O` [GABA, gamma aminobutyric acid], for which the “muscle tone and muscle spasticity” value in the test on ALS patients (GABA administered as a supplement, patients with neurodegenerative diseases such as ALS) was “restore muscle tone; also recorded: diminished muscle spasticity”.

The record behind these values is patent US11464753B2, “Composition for treatment of neurodegenerative disease” (WINNING THE FIGHT INC., priority 2013, dated 2022).
